Data from ChEMBL document CHEMBL1147867, “Identification of antitumour activity of novel derivatives of 8-aryl-2,6,7,8-tetrahydroimidazo[2,1-c][1,2,4]triazine-3,4-dione and 8-aryl-4-imino-2,3,7,8-tetrahydroimidazo[2,1-c][1,2,4]triazin-3(6H)-one” (Bioorg Med Chem, 2007).
Active and inactive are the calls of the source. The rule behind the calls is not given here.

Key:
[1] = Cell viability in HSF cells at 50 uM after 24 hrs by MTT assay; type: cell-based, Fibroblast; settings: human, read-out: Activity
[2] = test system: RPMI-8226; assay: Cell viability in human RPMI 8226 ECACC 87012702 cancer cells at 1 uM after 24 hrs by MTT assay; type: functional
[3] = Acute toxicity in mouse; type: organism-based; settings: in vivo
[4] = Cell viability in HSF cells at 1 uM after 24 hrs by MTT assay; type: cell-based, Fibroblast; settings: human, read-out: Activity
[5] = Cytotoxicity against Vero cells at 10 ug/ml after 72 hrs; type: cell-based; settings: chlorocebus sabaeus, read-out: Inhibition
[6] = test system: A549; assay: Anticancer activity against human A549 cells at 50 ug/ml after 72 hrs; type: functional; settings: A549, 72 h
[7] = test system: T47D; assay: Induction of DNA damage in T47D cells at 37.9 uM; type: functional, cell-based; settings: Homo sapiens
[8] = Cytotoxicity against Vero cells at 50 ug/ml after 72 hrs; type: cell-based; settings: chlorocebus sabaeus, read-out: Inhibition
[9] = test system: HeLa; assay: Cytotoxicity against human HeLa cells at 50 ug/ml after 72 hrs; type: functional
[10] = test system: LS180; assay: Induction of DNA damage in LS180 cells at 37.9 uM; type: functional, cell-based; settings: Homo sapiens
[11] = test system: T47D; assay: Cytotoxicity against human T47D cells at 50 ug/ml after 72 hrs; type: functional
[12] = test system: A549; assay: Anticancer activity against human A549 cells at 10 ug/ml after 72 hrs; type: functional; settings: A549, 72 h
[13] = test system: HeLa; assay: Induction of DNA damage in HeLa cells at 37.9 uM; type: functional, cell-based; settings: Homo sapiens
[14] = test system: HeLa; assay: Cytotoxicity against human HeLa cells at 10 ug/ml after 72 hrs; type: functional
[15] = Cytotoxicity against human LS180 cells at 10 ug/ml after 72 hrs; type: functional; settings: LS180, 72 h
[16] = test system: T47D; assay: Cytotoxicity against human T47D cells at 10 ug/ml after 72 hrs; type: functional
[17] = test system: RPMI-8226; assay: Cell viability in human RPMI 8226 ECACC 87012702 cancer cells at 50 uM after 24 hrs by MTT assay; type: functional
[18] = Cell viability in HSF cells at 100 uM after 24 hrs by MTT assay; type: functional, Homo sapiens, Fibroblast
[19] = test system: RPMI-8226; assay: Cell viability in human RPMI 8226 ECACC 87012702 cancer cells at 100 uM after 24 hrs by MTT assay; type: functional
[20] = Cytotoxicity against human LS180 cells at 50 ug/ml after 72 hrs; type: functional; settings: LS180, 72 h
[21] = test system: Jurkat; assay: Anticancer activity against human jurkat cells; type: functional, cell-based
[22] = test system: HT-29; assay: Anticancer activity against human HT 29 cells; type: functional, cell-based

Row | Compound | cytotoxicity at 72 h, 10 ug/ml [5] [%] | inhibition at 50 µg/mL [6] [%] | cytotoxicity at 72 h, 50 ug/ml [8] [%] | inhibition at 50 µg/mL [9] [%] | inhibition at 50 µg/mL [11] [%] | inhibition at 10 µg/mL [12] [%] | inhibition at 10 µg/mL [14] [%] | inhibition at 10 µg/mL [15] [%] | inhibition at 10 µg/mL [16] [%] | inhibition at 50 µg/mL [20] [%] | also measured
1 | O=c1[nH]nc2n(c1=O)CCN2c1ccc(Cl)cc1 | 0 | 15 | 7 | 26 | 1 | 0 | 2 | 50 | 5 | 35 | viability at 24 h, 50 µM [1]: 95%; Activity [2]: 104%; LD50 [3]: > 2000 mg/kg; viability at 24 h, 1 µM [4]: 99%; Activity [7]: Active; Activity [10]: Active; Activity [13]: Active; Activity [17]: 89%; Activity [18]: 96%; Activity [19]: 61%
2 | Cc1ccc(N2CCn3c2n[nH]c(=O)c3=N)cc1 | 0 | 38 | 0 | 0 | 0 | 37 | 0 | 32 | 0 | 45 | Activity [21]: Active; Activity [22]: Active
